Test results: patent US20070167424A1, “Aztreonam L-lysine and methods for the preparation thereof” (priority 2003, published 2007)

Key:
[1] = Storage stability: impurity content by HPLC after storage; format: physicochemical
Protocol: (§1) The Aztreonam L-lysine obtained using these methods was stable in the sense that during 3 months at 2-8° C.:
2. no impurity exceed 0.3 area %.
The impurity content of Aztreonam lysine salt using the HPLC method is determined as follows:
a. Aztreonam Lysine salt sample is dissolved in 0.02 M KH2PO4 buffer solution (pH adjusted 2.0 with 25 w/w % phosphoric acid) diluent,
b. The sample solution (ca. 10 μl) is injected into a 100.0 mm×4.0 mm, 3 μm RP-1 8 HPLC column,
c. Gradient eluting with a mixture of 0.02 M KH2PO4 buffer solution (pH adjusted 3.0 with 25 w/w % phosphoric acid) (A) and acetonitrile (B) according to the following profile:
d. The amounts of each impurity was measured at 230 nm wavelength with a UV detector and appropriate recording device.
e. The amount of each impurity was calculated referring to an Aztreonam working standard at a concentration of […].
In the above method, Aztreonam has a retention time of about 10.2 minutes.

[2] = Storage stability: assay of Aztreonam by HPLC after storage; format: physicochemical
Protocol: as §1
1. the assay of Aztreonam was maintained constant in the limit 60-66%; and The assay of Aztreonam Lysine salt using the HPLC method was determined as follows: a. Dissolving Aztreonam Lysine salt sample in a mixture of 0.02 M KH2PO4 buffer solution (pH adjusted 3.0 with 25 w/w % phosphoric acid) and methanol (80:20) diluent, b. Injecting the sample solution (ca. 10 μl) into a 50.0 mm×4.6 mm, 3 μm RP-18 HPLC column, c. Isocratic eluting at 1.5 ml/min with a mixture of 0.02 M KH2PO4 buffer solution (pH adjusted 3.0 with 25 w/w % phosphoric acid) and methanol in a 83:17 v/v % ratio. d. Measuring of the amounts of each impurity at 270 nm wavelength with a UV detector and appropriate recording device. e. Calculating of the assay referring to the Aztreonam working standard at a concentration of 100 [g/ml.
In the above method, Aztreonam has a retention time of about 2.3 minutes

[3] = after storage for three months at about 2-8° C.

SMILES | no impurity exceed (largest single impurity) ([1]; during 3 months at 2-8° C.) [area %] | assay of Aztreonam maintained constant in the limit ([2]; during 3 months at 2-8° C.) | does not contain any impurity exceeding [1, 3] [area %] | maintains at least about ... of the Aztreonam [2, 3]
C[C@H]1[C@H](NC(=O)/C(=N\OC(C)(C)C(=O)O)c2csc(N)n2)C(=O)N1S(=O)(=O)O.NCCCC[C@H](N)C(=O)O [Aztreonam L-lysine] | ≤ 0.3 | 60-66% |  | 
C[C@H]1[C@H](NC(=O)/C(=N\OC(C)(C)C(=O)O)c2csc(N)n2)C(=O)N1S(=O)(=O)O.NCCCC[C@H](N)C(=O)O [Example 2, Aztreonam L-lysine salt] |  |  | ≤ 0.3 | at least 63 weight %
